{
  "source": "patent US8642602B2",
  "about": "“Method of inhibiting fibrogenesis and treating fibrotic disease” (University of Georgia Research Foundation, Inc., priority 2009, dated 2014)",
  "key": {"collagen I": {"tested_on": "collagen I", "assay": "Further testing: fibrogenic activity measured by production of collagen I", "type": "cell-based", "settings": "1 μM, one dose at start of culturing, 7 days (FIG. 11)", "source_text": "RNA was also isolated on days 4 and 7."}, "hepatic stellate cells": {"tested_on": "hepatic stellate cells", "assay": "Induction of fibrogenic genes in cultured hepatic stellate cells", "type": "cell-based, rat", "settings": "freshly isolated quiescent hepatic stellate cells in culture", "source_text": "EZH2 is therefore a negative regulator of PPARγ transcription in myofibroblasts, but also appears to play a wider regulatory role in promoting MTD and wound-healing. Furthermore, the stimulation of EZH2 expression and subsequent methylation of H3K27 in the downstream exons of the PPARγ gene is identified as a second mechanism through which MeCP2 achieves transcriptional silencing of PPARγ. The combined effect of H3K9 methylation and HP1α binding at the 5′ end of the PPARγ gene with H3K27 methylation and PRC1 recruitment in the downstream exons would be to prevent both transcriptional initiation and elongation which reflects the biological importance of suppressing PPARγ expression for MTD and wound-healing. […]\nTotal RNA was purified from isolated cells using the Total RNA purification kit (Qiagen, UK) following the manufacturer's instructions and was used to generate first strand cDNA utilising a random hexamer primer [p(dN)6] and MMLV reverse transcriptase. […] After each run, a dissociation curve was performed to ensure that no primer dimers contaminated the quantification and that the product had the expected melting temperature. All PCR reactions were normalized to the internal control and relative level of transcriptional difference calculated using the following equation: [1/(2A)]×100."}, "[1]": {"tested_on": "α1 (I) collagen and TIMP-1 transcripts", "assay": "Acute CCl4 liver injury, liver transcripts by qPCR", "type": "in vivo, C57Bl6 mice", "settings": "mice, 15 mg/m^2 IP 2 hours prior to single dose of CCl4, sacrificed 24 h after", "experimental": "FIG. 5—A.) and B.) 5×10^6 rat MFBs were electroporated as outlined “Materials and methods”. 2 μgs control siRNA or siRNA designed to target rat EZH2 was used per transfection. Total RNA was prepared from control or rat EZH2 siRNA transfected cells 48 h after the electroporation. First strand cDNA was synthesised which was then utilised as a template in qPCR using primers for specific amplification of EZH2 (in A.) and PPARγ (in B.). C.) Fully differentiated MFBs were treated with 1 μM 3-deazaneplanocin A or vehicle for 72 h at which time total RNA was prepared from control or drug treated cells. First strand cDNA was synthesised which was then utilised as a template in qPCR using primers for specific amplification of PPARγ. D.) Freshly isolated rat HSC were plated out onto plastic in two separate dishes and one dish treated with 1 μM 3-deazaneplanocin A at 12 h following the HSC isolation. […] Results are expressed as percent control of 3-deazaneplanocin A and olive oil vehicle injected mice (data not included in the graph).\n3 deazaneplanocin A was given to two groups of four C57Bl6 mice (15 mg/m^2 which was calculated to be 0.428 μg of drug per g body weight of a mouse) was given IP 2 hours prior to a single dose of CCl4 (CCl4/olive oil in a 1:1 [vol/vol] ratio at 1 μl per g body weight). […]"}, "EZH2": {"tested_on": "EZH2", "settings": "Tan J et al, 2007; cited from earlier work"}},
  "data": [
    {"smiles": "Nc1nc(Cl)cc2c1ncn2C1COC(CO)O1", "note": "(stereo not drawn) [Compound 8]", "values": [
      {"measurement": "inhibition of collagen I production at 7 days", "setting": "collagen I", "value": "significant inhibition"}
    ]},
    {"smiles": "Nc1nccc2c1ncn2[C@@H]1C=C(CO)[C@@H](O)[C@H]1O", "note": "[Compound 3, 3-deazaneplanocin A]", "values": [
      {"measurement": "induction of fibrogenic gene al (I) collagen", "setting": "hepatic stellate cells", "value": "suppressed the induction"},
      {"measurement": "induction of fibrogenic gene tissue inhibitor of metalloproteinase-1 (TIMP-1)", "setting": "hepatic stellate cells", "value": "suppressed the induction"},
      {"measurement": "induction of transcripts for TIMP-1 in injured liver", "setting": "[1]", "value": "suppressed the induction"},
      {"measurement": "induction of transcripts for α1 (I) collagen in injured liver", "setting": "[1]", "value": "suppressed the induction"},
      {"measurement": "effect on cellular EZH2", "setting": "EZH2", "value": "depletes cells of EZH2"}
    ]}
  ]
}
